Laboratory results: patent US10526316B2, “Quinoxaline and pyridopyrazine derivatives as PI3Kβ inhibitors” (Janssen Pharmaceutica NV, priority 2015, dated 2020)
pIC50, pKd: −log10 of the molar value. Like-named read-outs stand apart in the source and are kept apart here.

Assays:
PI3Kβ = molecular target: T1, PI3Kβ (Homo sapiens, UniProt P42338); experiment: Enzyme binding assay (KINOMEscan, DiscoveRx); settings: PIK3Cβ_h, read-out: Kd PIK3Cβ_h
T1 construct: purchased DiscoveRx Corporation, San Diego (contract service, KINOMEscan)
T1 sequence (P42338 whole entry): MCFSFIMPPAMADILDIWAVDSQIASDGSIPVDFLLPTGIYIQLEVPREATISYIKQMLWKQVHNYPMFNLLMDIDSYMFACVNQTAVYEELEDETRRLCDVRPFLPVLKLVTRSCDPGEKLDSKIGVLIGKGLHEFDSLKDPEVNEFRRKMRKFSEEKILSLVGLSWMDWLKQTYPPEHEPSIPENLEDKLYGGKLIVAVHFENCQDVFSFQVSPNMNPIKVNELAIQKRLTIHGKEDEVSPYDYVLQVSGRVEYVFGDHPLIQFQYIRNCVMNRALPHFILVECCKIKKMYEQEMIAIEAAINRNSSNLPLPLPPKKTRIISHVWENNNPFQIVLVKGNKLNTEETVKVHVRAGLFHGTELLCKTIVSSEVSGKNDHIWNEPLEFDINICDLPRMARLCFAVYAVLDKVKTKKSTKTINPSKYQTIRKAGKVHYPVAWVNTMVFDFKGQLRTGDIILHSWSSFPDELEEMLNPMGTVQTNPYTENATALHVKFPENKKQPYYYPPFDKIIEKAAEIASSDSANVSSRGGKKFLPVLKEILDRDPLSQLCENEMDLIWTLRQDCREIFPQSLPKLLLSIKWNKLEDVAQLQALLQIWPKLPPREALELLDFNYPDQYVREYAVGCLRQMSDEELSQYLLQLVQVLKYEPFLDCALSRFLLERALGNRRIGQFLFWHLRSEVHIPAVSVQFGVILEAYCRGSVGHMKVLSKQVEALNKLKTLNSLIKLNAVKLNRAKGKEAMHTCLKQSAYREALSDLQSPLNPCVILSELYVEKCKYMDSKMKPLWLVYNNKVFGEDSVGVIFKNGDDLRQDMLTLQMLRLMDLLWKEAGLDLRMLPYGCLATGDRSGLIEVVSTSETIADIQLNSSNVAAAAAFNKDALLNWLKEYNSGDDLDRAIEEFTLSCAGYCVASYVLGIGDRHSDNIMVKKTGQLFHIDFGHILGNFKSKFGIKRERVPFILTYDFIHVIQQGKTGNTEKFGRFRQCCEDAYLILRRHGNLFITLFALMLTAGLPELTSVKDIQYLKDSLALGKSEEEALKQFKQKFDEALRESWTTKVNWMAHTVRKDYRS
Outline: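 Kinase binding affinities were measured with KINOMEscan technology. Results are given as Kd, the inhibitor binding constant, in nM.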

PI3Kδ = molecular target: T2, PI3Kδ (Homo sapiens, UniProt O00329); experiment: Enzyme binding assay (KINOMEscan, DiscoveRx); settings: PIK3Cδ_h
T2 construct: purchased DiscoveRx Corporation, San Diego (contract service, KINOMEscan)
T2 sequence (O00329 1-1044): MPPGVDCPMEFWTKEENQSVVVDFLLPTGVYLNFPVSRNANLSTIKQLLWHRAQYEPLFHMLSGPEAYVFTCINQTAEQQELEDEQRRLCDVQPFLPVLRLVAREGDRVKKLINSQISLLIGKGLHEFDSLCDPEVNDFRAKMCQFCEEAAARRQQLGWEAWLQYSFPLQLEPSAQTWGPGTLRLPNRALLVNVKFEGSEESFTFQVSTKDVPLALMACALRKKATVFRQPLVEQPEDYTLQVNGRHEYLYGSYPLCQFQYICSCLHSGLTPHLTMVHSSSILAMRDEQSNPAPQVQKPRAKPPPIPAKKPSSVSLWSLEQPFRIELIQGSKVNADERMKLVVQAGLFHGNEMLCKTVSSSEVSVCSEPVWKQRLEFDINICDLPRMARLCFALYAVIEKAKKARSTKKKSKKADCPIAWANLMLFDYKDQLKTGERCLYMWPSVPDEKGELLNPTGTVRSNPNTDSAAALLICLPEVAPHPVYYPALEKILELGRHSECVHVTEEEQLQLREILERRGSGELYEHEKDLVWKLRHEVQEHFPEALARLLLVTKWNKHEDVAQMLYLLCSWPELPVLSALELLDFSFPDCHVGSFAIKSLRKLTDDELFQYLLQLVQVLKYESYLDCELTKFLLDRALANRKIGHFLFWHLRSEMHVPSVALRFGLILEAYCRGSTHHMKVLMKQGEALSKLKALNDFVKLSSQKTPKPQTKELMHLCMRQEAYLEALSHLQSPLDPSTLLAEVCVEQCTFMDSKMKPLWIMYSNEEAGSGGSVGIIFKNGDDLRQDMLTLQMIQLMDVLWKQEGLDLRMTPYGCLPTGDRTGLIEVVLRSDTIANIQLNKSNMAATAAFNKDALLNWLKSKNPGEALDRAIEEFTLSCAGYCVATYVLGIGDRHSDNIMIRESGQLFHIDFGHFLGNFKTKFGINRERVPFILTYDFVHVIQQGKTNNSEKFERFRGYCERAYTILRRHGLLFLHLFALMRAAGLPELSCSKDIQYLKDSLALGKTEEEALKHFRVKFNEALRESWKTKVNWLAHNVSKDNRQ
Outline: (§1)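 Binding affinities were measured on the KINOMEscan platform.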

kinase enzymes [1] = molecular target: T3, kinase enzymes (Homo sapiens, UniProt P42336); experiment: Enzyme binding assay (KINOMEscan, DiscoveRx), further kinases of Table A; settings: PIK3Cα_h
T3 construct: purchased DiscoveRx Corporation, San Diego (contract service, KINOMEscan)
T3 sequence (P42336 whole entry): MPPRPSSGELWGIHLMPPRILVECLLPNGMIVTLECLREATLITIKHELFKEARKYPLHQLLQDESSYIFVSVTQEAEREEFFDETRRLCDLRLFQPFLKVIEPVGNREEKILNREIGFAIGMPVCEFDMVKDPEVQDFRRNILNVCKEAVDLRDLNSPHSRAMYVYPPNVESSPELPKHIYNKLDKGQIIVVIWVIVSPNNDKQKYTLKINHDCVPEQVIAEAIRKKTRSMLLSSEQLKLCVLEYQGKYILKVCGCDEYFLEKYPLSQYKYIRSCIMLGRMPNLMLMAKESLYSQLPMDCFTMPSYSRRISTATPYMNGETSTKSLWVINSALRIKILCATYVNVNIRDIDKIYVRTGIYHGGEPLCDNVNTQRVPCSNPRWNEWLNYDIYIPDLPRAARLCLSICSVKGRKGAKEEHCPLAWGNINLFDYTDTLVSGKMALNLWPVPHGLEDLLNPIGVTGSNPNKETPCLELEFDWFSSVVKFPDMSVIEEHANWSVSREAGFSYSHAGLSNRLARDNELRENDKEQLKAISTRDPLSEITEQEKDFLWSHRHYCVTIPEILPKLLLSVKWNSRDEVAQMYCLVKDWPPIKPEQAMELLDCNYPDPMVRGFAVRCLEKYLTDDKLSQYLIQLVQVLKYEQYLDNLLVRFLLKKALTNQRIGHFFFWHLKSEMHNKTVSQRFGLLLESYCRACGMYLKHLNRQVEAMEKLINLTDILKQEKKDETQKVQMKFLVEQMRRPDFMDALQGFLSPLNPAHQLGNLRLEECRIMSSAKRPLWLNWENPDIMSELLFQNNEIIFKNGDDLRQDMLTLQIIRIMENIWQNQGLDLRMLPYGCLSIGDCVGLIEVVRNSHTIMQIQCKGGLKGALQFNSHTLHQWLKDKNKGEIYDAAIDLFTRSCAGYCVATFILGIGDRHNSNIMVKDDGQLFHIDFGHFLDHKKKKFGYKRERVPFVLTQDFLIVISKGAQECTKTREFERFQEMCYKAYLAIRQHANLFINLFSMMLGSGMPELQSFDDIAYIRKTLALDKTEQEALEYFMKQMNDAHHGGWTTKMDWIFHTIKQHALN
Outline: as §1

kinase enzymes [2] = molecular target: T4, kinase enzymes (Homo sapiens, UniProt P42345); experiment: as above; settings: MTOR_h
T4 construct: purchased DiscoveRx Corporation, San Diego (contract service, KINOMEscan)
Outline: as §1

kinase enzymes [3] = molecular target: T5, kinase enzymes (Homo sapiens, UniProt P48736); experiment: as above; settings: PIK3Cγ_h
T5 construct: purchased DiscoveRx Corporation, San Diego (contract service, KINOMEscan)
T5 sequence (P48736 whole entry): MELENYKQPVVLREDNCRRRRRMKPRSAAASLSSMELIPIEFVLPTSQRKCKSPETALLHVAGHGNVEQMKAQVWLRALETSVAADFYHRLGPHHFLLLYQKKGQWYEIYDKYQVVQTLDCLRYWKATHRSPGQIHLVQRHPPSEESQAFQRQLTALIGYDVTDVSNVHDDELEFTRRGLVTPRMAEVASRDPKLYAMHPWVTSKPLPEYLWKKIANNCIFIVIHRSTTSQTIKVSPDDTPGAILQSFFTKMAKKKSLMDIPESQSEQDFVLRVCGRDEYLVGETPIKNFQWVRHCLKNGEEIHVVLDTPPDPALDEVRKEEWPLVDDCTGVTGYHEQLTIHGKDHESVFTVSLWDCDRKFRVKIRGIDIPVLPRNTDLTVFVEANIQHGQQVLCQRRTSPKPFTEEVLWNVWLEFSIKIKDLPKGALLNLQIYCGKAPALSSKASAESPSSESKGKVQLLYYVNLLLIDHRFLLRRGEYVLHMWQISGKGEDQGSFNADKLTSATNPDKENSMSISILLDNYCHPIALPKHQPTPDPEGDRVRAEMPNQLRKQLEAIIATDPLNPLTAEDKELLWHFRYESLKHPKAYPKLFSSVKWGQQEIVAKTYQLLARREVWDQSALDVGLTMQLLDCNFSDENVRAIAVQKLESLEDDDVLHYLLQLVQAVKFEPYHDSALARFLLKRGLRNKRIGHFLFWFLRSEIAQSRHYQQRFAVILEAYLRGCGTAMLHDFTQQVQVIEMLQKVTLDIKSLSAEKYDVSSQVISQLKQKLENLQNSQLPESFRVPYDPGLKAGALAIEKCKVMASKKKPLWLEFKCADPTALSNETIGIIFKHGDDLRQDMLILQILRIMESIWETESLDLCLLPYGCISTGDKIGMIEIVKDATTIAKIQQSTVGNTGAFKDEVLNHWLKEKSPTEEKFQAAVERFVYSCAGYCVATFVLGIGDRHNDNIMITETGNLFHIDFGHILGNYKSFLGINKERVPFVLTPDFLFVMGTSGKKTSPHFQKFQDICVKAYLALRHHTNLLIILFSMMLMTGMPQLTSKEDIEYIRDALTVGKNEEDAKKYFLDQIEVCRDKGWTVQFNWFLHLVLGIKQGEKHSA
Outline: as §1

[4] = system: Akt phosphorylated at Ser473 in PC-3 cells; experiment: Cellular assay: phosphorylation of Akt at Ser473 in PC-3 cells (MSD ELISA); format: cell-based; settings: PC-3 cells, 60 min compound incubation, MSD ELISA, read-out: IC50 pAkt_S473
Outline: (§2)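 Electrochemiluminescent sandwich ELISA read-out: phospho-specific capture (Ser473 or Thr308), Sulfo-tag anti-total Akt detection, signal proportional to phospho-Akt. Cells treated 60 min at 37° C with compound, DMSO 0.3%. IC50 fitted from five concentrations.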

[5] = system: Akt phosphorylated at Thr308 in PC-3 cells; experiment: Cellular assay: phosphorylation of Akt at Thr308 in PC-3 cells (MSD ELISA); format: cell-based; settings: PC-3 cells, 60 min compound incubation, MSD ELISA, read-out: IC50 pAkt_Thr308
Outline: as §2

Row | SMILES | pKd (PI3Kβ) | pKd (PI3Kδ) | pKd (kinase enzymes [1]) | pKd (kinase enzymes [2]) | pKd (kinase enzymes [3]) | pIC50 ([4]; Homo sapiens, PC-3, 1 h) | pIC50 ([5]; Homo sapiens, PC-3, 1 h) | melting point [°C] | pIC50 [4] | pIC50 [5]
1 | CC(Nc1cc(F)cc(F)c1)c1cc(C(=O)N(C)C)cc2ncc(N3CCOCC3)nc12 (centres unmarked) [Compound 11] | 9.00 | 6.56 | 6.20 | < 4.52 | 5.60 | 7.09 | 7.38 | 228 | – | –
2 | Cc1cc(F)cc(N2CCCC2c2cc(C(=O)N(C)C)cc3ncc(N4CCOCC4)nc23)c1 (centres unmarked) [Compound 35] | 8.70 | 6.82 | 6.79 | < 4.52 | 5.72 | ~7.41 | ~7.57 | 80 | – | –
3 | CC(Nc1cccc(F)c1)c1cc(C(=O)N2CCC[C@H]2CO)cc2ncc(N3CCOCC3)nc12 (single isomer, unassigned) [Compound 116] | 5.54 | ≤ 4.52 | < 4.52 | < 4.52 | < 4.52 | – | – | 332 | < 6.29 | < 6.29
4 | CC(Nc1cc(F)cc(F)c1)c1cc(C(=O)O)cc2ncc(N3CCOCC3)nc12 (single isomer, unassigned) [Compound 83c] | 6.80 | 5.31 | 5.51 | 5.51 | 5.57 | – | – | 157 | < 6.29 | < 6.29
5 | COC(=O)c1cc(C(C)Nc2cc(F)cc(F)c2)c2nc(N3CCOCC3)cnc2c1 (centres unmarked) [Compound 80] | 7.30 | 5.12 | < 4.52 | < 4.52 | 4.61 | – | – | 244 | ~6.67 | ~7.10
6 | O=C(c1cc(C2CCCN2c2cc(F)cc(F)c2)c2nc(N3CCOCC3)cnc2c1)N1CCC1 (single isomer, unassigned) [Compound 37] | 7.70 | 5.54 | 5.21 | < 4.52 | < 4.52 | – | – | 276 | 6.70 | 6.90
7 | O=C(NCCO)c1cc(C2CCCN2c2cc(F)cc(F)c2)c2nc(N3CCOCC3)cnc2c1 (centres unmarked) [Compound 71] | 9.00 | 6.86 | 6.60 | 4.65 | 6.10 | ~7.82 | 7.89 | 80 | – | –
8 | Cc1cc(C2CCCN2c2cc(F)cc(F)c2)c2nc(N3CCOCC3)cnc2c1 (single isomer, unassigned) [Compound 107] | 6.44 | 4.63 | < 4.52 | < 4.52 | < 4.52 | – | – | 80 to 90 | < 6.29 | < 6.29
9 | OC[C@@H]1CCCN1Cc1cc(C2CCCN2c2cc(F)cc(F)c2)c2nc(N3CCOCC3)cnc2c1 (single isomer, unassigned) [Compound 77] | 9.52 | 7.00 | 6.44 | < 4.52 | 6.19 | ~7.12 | ~7.29 | 80 | – | –

More lines, now with the values ahead:

Row | pKd (PI3Kβ) | pKd (PI3Kδ) | pKd (kinase enzymes [1]) | pKd (kinase enzymes [2]) | pKd (kinase enzymes [3]) | pIC50 ([4]; Homo sapiens, PC-3, 1 h) | pIC50 ([5]; Homo sapiens, PC-3, 1 h) | melting point [°C] | pIC50 [4] | pIC50 [5] | SMILES
10 | 8.52 | 5.97 | 5.75 | 5.01 | 5.05 | 6.95 | 6.98 | 80 | – | – | CC(c1cc(C(=O)N2CCOCC2)cc2ncc(N3CCOCC3)nc12)N(CCO)c1cc(F)cc(F)c1 (centres unmarked) [Compound 129]
11 | 7.85 | 5.66 | 5.17 | < 4.52 | < 4.52 | 6.32 | 6.57 | 80 | – | – | Cc1cccc(NC(C)c2cc(C(=O)N3CCOCC3)cc3ncc(N4CCOCC4)nc23)c1 (centres unmarked) [Compound 120]
12 | 7.17 | 5.23 | 5.19 | < 4.52 | < 4.52 | < 6.29 | < 6.29 | 80 | – | – | CCc1cccc(NC(C)c2cc(C(=O)N3CCOCC3)cc3ncc(N4CCOCC4)nc23)c1 (centres unmarked) [Compound 125]
13 | 8.70 | 6.03 | 5.72 | < 4.52 | 5.09 | 7.08 | 7.42 | 80 | – | – | CC(Nc1cc(F)cc(Cl)c1)c1cc(C(=O)N2CCOCC2)cc2ncc(N3CCOCC3)nc12 (centres unmarked) [Compound 146]
14 | 6.26 | 4.91 | 5.73 | 4.94 | < 4.52 | < 6.29 | < 6.29 | 80 | – | – | C[C@H](Nc1cc(C(=O)N(C)C)cc2ncc(N3CCOCC3)nc12)c1ccc(F)cc1 [Compound 401]
15 | 7.06 | 5.20 | < 4.52 | < 4.52 | < 4.52 | < 6.29 | < 6.29 | 80 | – | – | COc1cc(NC(C)c2cc(C(=O)N3CCOCC3)cc3ncc(N4CCOCC4)nc23)cc(OC)c1 (centres unmarked) [Compound 134]
16 | 5.48 | 4.54 | < 4.52 | < 4.52 | < 4.52 | – | – | 147 | < 6.29 | < 6.29 | CC(Oc1ccc(F)c(F)c1)c1cc(C(=O)N2CCN3CCC[C@H]3C2)cc2ncc(N3CCOCC3)nc12 (single isomer, unassigned) [Compound 369b]
17 | 9.00 | 6.43 | 6.08 | 4.61 | 5.45 | 7.11 | 7.28 | 80 | – | – | CC(Nc1cc(F)cc(F)c1)c1cc(CNCCS(C)(=O)=O)cc2ncc(N3CCOCC3)nc12 (centres unmarked) [Compound 173]
18 | 9.30 | 6.94 | 6.08 | 4.94 | 5.66 | 7.28 | 7.43 | 80 | – | – | CNCCNC(=O)c1cc(C(C)Nc2cc(F)ccc2F)c2nc(N3CCOCC3)cnc2c1 (centres unmarked) [Compound 132]
19 | 5.57 | < 4.52 | < 4.52 | < 4.52 | < 4.52 | < 6.29 | < 6.29 | 125 | – | – | CC(Nc1ccc(F)c(F)c1)c1cc(C(=O)N2CCN3CCC[C@@H]3C2)cc2ncc(N3CCOCC3)nc12 (single isomer, unassigned) [Compound 347a]
20 | 8.00 | 5.80 | 5.27 | < 4.52 | < 4.52 | 6.46 | ~6.48 | 80 | – | – | COc1cccc(NC(C)c2cc(C(=O)N3CCOCC3)cc3ncc(N4CCOCC4)nc23)c1 (centres unmarked) [Compound 121]
21 | 7.43 | 5.13 | 5.28 | < 4.52 | 4.76 | < 6.29 | 6.83 | 265 | – | – | O=C(NCCO)c1cc(CNc2cc(F)cc(F)c2)c2nc(N3CCOCC3)cnc2c1 [Compound 333]
22 | 7.59 | 5.11 | 4.76 | < 4.52 | 4.89 | < 6.29 | ~6.37 | 80 | – | – | CC(Nc1cc(F)cc(F)c1)c1cc(Br)cc2ncc(N3CCOCC3)nc12 (centres unmarked) [Compound 167]
